Results taken from patent US4356306A, “Water-soluble derivatives of 6,6'-methylene-bis-(2,2,4-trimethyl-1,2-dihydroquinoline)” (Material Vegyipari Szovetkezet, priority 1979, dated 1982).

Key:
[1] = known radioprotective compounds; cited from earlier work
[2] = inhibitor activity on the polymerization of acrylic acid at 60° C.; type: biochemical; conditions: control 16 hours
Procedure: The efficiency of the compounds of the invention was investigated in vitro by measuring the inhibitor activity of the compounds on the polymerization of acrylic acid at 60° C., and comparing this activity with that of 3.5-di-tert.butyl-4-hydroxy-toluene (BHT) and L-ascorbic acid. The radical binding activity of the compounds was studied.
The times required to polymerization are given in the next Table.

[3] = test system: mice; experiment: protection against hepatotoxic dimethylsulfoxide; type: in vivo; conditions: for death after dimethylsulfoxide / protective activity against dimethylsulfoxide: 100 mg. disulfonic acid or 60 mg. disulfonamide in water and dimethylsulfoxide, i.p. or s.c.
Procedure: The surrounding carcinogens play an important role in the formation of malignant tumors. These carcinogens contain free radicals or they become carcinogenic in the living organism. […] As the radical reactions may be controlled by the antioxidants, they may be employed as therapeutic and as prophylactic agents as well. […] A hepatotoxic substance had to be administered which was simultaneously carcinogenic. Dimethylsulfoxide was suitable. 0.3 ml. of dimethylsulfoxide/mice was administered i.p. or s.c. in an aqueous solution and as a result 7 animals died within 10 days out of 10 test animals.

[4] = test system: cancer of the bladder; conditions: large amount of Vitamin-C; cited from earlier work
[5] = test system: CFLP mice; experiment: protection against LD90 radiodose after i.p. administration; type: in vivo; conditions: 1000 mg./kg. i.p., preferably 2 hours before LD90 radiodose
Procedure: The unexpected activity of the new compounds has been observed during a total body irradiation. As test animals CFLP mice of an average weight of 20 to 22 g. were used, each group consisted of 8 male and 8 female animals. The control group was irradiated with 7 Gy (total body irradiation) and the test groups were treated per os for 10 days with the new water-soluble antioxidant of the invention at a daily dose of 0.5 g./kg. The treatment was followed by 7 Gy total body irradiation. There was no significant difference between the various water-soluble antioxidants and as a result within 30 days two animals of the control group were alive and an average of 12 animals survived in the treated group. A significant result was obtained with X^2 probe, p<0.001 and the Dose Modification Factor (DMF), which is the number of dead animals in the control group related to the number of dead animals in the treated group, amounted to 3.5 at LD80. A dose of 1000 mg./kg. bodyweight of MTDQ disulfonic acid Na was administered i.p. preferably 2 hours before irradiation with an LD90 radiodose and a 100% protective activity was obtained. […] It is known that the radioprotective compounds protect the healthy tissue cells better than the malignant tumor cells.

[6] = detection of MTDQ in the liver; type: in vivo; conditions: after administration of the compound of the invention
From the text: (§1) The concentration of the found MTDQ was the same as if it had not been the compound of the invention that had been administered, but rather MTDQ. […] The radioprotective activity of the water-soluble antioxidant is presumably due to the fact that the radiation energy is predominantly concentrated on the antioxidant and further that in addition to its membrane stabilizing activity the radicals and peroxides formed in the course of the irradiation, are inactivated by the antioxidant, in the well oxygenated cells.

[7] = test system: malignant tumor tissues; conditions: cited from earlier work
[8] = plasma concentration; type: in vivo
From the text: as §1

## Br.Br.N=C(N)SCCN [AET, S-2-aminoethyl-isothiuronium-dihydrobromide]
[1]
  duration of effect after administration: extremely limited
  effective doses as radioprotective compound: effective only at subtoxic doses

## Cc1cc(C(C)(C)C)c(O)c(C(C)(C)C)c1 [BHT, 3.5-di-tert.butyl-4-hydroxy-toluene]
[2]; 0.02%
  times required to polymerization: 120 h

## C[S+](C)[O-] [Dimethylsulfoxide]
[3]; 0.3 ml./mice i.p. or s.c., out of 10 test animals
  animals died within 10 days: 7 animals

## O=C1O[C@H]([C@@H](O)CO)C(O)=C1O [L-ascorbic acid]
[2]; 0.02%
  times required to polymerization: 18 h
[4]
  cancer of the bladder by beta-naphthyl-amine: does not cause cancer of the bladder

## CC1(C)C=C(CS(=O)(=O)O)c2cc(Cc3ccc4c(c3)C(CS(=O)(=O)O)=CC(C)(C)N4)ccc2N1 [MTDQ disulfonic acid Na, 6,6'-methylene-bis(2,2-dimethyl-4-methanesulfonic acid Na-1,2-dihydroquinoline)]
[5]
  protective activity: 100%

## CC1=CC(C)(C)Nc2ccc(Cc3ccc4c(c3)C(C)=CC(C)(C)N4)cc21 [MTDQ, 6,6'-methylene-bis(2,2,4-trimethyl-1,2-dihydroquinoline)]
[6]
  MTDQ in the liver: could be detected in the liver
[7]; in vivo
  radiosensibility of malignant tumor tissues: increase the radiosensibility of malignant tumor tissues
[7]; radiosensitive tumors
  reduction of radiodose for the same effect: at least 50%
[8]; after administration of the compound of the invention
  concentration of found MTDQ compared with administration of MTDQ itself: the same
[8]; after administration of the new compounds
  MTDQ in the plasma as metabolite (desulfonation): found in the plasma

## CC1(C)C=C(CS(=O)(=O)O)c2cc(Cc3ccc4c(c3)C(CS(=O)(=O)O)=CC(C)(C)N4)ccc2N1 [MTDQ-disulfonic acid]
[2]; concentration not given
  times required to polymerization: 400 h
[3]
  death after dimethylsulfoxide: no death was observed
  protective activity against dimethylsulfoxide: 100%

## NCCCNCCSP(=O)(O)O [WR 2721, S-2-(3-aminopropyl)-aminoethyl-phosphorothioic acid]
[1]
  duration of effect after administration: extremely limited
  effective doses as radioprotective compound: effective only at subtoxic doses

## NCCS [cysteamine, beta-mercapto-ethyl-amine]
[1]
  duration of effect after administration: extremely limited
  effective doses as radioprotective compound: effective only at subtoxic doses

## N[C@@H](CS)C(=O)O [cysteine]
[1]
  duration of effect after administration: extremely limited
  effective doses as radioprotective compound: effective only at subtoxic doses

## CC1(C)C=C(CS(N)(=O)=O)c2cc(Cc3ccc4c(c3)C(CS(N)(=O)=O)=CC(C)(C)N4)ccc2N1 [disulfonamide]
[3]
  death after dimethylsulfoxide: no death was observed
  protective activity against dimethylsulfoxide: 100%
